Data published in patent US20050282743A1, “Molecular interactions in cells” (Arbor Vita Corporation, priority 2001, published 2005).
Peptide text beside a SMILES is read from it. * marks the point of attachment. Biotin = O=C1N[C@H]2[C@H](CS[C@H]2CCCCC(=O)*)N1

Legend:
[1] = target: T1, PDZ protein (GST-PDZ fusion) (Homo sapiens, UniProt O14745); test: G' assay (10 uM PL peptide), results of TABLE 7 and TABLE 12; type: binding
T1 construct: made in house; host or cells: E. coli (DH5alpha, BL21 or JM109)
T1 sequence (O14745 1-358): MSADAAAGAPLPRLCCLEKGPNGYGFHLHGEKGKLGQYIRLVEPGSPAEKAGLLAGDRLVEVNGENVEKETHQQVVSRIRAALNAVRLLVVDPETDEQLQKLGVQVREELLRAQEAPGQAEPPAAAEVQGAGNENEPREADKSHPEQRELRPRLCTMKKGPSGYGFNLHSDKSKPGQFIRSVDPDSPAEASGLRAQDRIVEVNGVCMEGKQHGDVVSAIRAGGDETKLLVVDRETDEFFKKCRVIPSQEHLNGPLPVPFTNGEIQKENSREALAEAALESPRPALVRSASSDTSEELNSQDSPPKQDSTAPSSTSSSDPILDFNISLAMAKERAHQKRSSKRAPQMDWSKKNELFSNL
In short: (§1)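 Same steps as the G-zero format, apart from a peptide concentration of 10 uM in place of 20 uM in step 2. Amino-terminally biotinylated PL peptides bind GST-PDZ fusions, and retained peptide is quantified by 450 nm absorbance.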

[2] = target: T2, PDZ protein (GST-PDZ fusion) (Homo sapiens, UniProt P29475); test: as above; type: binding; conditions: PDZ NOS1, PDZ Domain 1
T2 construct: made in house; host or cells: E. coli (DH5alpha, BL21 or JM109)
In short: as §1

T2 sequence (P29475 whole entry, the tested form may be a part): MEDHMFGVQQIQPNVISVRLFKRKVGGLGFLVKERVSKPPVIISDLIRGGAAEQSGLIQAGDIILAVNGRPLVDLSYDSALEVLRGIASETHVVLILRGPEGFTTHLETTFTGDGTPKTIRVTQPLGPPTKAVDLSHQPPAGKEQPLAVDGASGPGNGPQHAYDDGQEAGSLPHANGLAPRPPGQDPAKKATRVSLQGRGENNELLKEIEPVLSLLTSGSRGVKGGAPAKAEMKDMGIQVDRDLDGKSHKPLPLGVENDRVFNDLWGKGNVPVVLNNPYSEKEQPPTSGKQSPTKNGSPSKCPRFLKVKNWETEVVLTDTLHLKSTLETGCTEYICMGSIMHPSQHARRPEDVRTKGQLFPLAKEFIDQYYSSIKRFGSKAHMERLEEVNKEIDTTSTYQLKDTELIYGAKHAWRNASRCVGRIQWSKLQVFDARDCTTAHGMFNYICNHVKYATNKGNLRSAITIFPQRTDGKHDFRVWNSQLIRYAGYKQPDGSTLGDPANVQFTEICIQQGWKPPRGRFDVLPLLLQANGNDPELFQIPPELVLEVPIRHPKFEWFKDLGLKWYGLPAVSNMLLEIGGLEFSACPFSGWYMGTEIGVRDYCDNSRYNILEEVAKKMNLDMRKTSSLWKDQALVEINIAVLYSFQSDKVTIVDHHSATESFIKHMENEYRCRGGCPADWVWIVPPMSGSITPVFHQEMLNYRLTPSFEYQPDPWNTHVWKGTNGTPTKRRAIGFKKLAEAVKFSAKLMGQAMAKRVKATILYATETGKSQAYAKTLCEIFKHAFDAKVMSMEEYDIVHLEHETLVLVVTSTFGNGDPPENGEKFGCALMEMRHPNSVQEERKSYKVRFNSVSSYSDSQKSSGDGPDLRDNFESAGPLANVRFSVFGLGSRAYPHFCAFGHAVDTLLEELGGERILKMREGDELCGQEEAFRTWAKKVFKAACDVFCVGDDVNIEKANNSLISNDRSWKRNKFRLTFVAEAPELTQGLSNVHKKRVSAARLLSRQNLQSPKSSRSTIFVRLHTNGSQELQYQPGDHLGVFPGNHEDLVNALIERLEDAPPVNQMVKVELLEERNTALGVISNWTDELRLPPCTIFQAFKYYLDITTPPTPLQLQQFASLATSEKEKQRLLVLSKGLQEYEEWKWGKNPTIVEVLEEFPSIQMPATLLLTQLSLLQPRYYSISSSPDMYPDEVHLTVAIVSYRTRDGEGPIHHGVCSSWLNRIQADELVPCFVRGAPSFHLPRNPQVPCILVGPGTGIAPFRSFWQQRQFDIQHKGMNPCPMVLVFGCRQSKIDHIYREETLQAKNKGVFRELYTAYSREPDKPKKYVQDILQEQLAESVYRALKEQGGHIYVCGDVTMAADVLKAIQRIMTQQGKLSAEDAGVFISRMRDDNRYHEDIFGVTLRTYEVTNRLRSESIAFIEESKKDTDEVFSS

SMILES | Classification ([1]; PDZ EBP50, PDZ Domain 1) | Classification ([1]; PDZ EBP50, PDZ Domain 2) | Classification [2]
CC[C@H](C)[C@H](NC(=O)[C@H](CC(=O)O)NC(=O)[C@H](CCC(=O)O)NC(=O)[C@H](CCCNC(=N)N)NC(=O)[C@@H](NC(=O)CCCC[C@@H]1SC[C@@H]2NC(=O)N[C@@H]21)[C@@H](C)O)C(=O)N[C@@H](Cc1ccc(O)cc1)C(=O)N[C@H](C(=O)N[C@@H](CC(N)=O)C(=O)N[C@@H](Cc1ccc(O)cc1)C(=O)N1CCC[C@H]1C(=O)N[C@H](C(=O)N[C@@H](Cc1ccccc1)C(=O)N[C@@H](CO)C(=O)N[C@@H](CCCNC(=N)N)C(=O)N[C@@H](CCCNC(=N)N)C(=O)N1CCC[C@H]1C(=O)N[C@@H](CCCCN)C(=O)N[C@H](C(=O)N[C@@H](CCCNC(=N)N)C(=O)N[C@H](C(=O)O)C(C)C)[C@@H](C)O)[C@@H](C)O)C(C)C [DNAM-1] (Biotin-TREDIYVNYPTFSRRPKTRV-OH; C-terminus assumed) | 1 (A450 nm 0-1) | 1 (A450 nm 0-1) | 1 (A450 nm 0-1)
CC(C)C[C@H](NC(=O)CNC(=O)[C@@H](NC(=O)[C@H](CO)NC(=O)[C@H](CC(N)=O)NC(=O)[C@H](Cc1ccccc1)NC(=O)CNC(=O)[C@H](C)NC(=O)[C@H](C)NC(=O)[C@H](Cc1ccccc1)NC(=O)[C@@H](NC(=O)CCCC[C@@H]1SC[C@@H]2NC(=O)N[C@@H]21)[C@@H](C)O)[C@@H](C)O)C(=O)N1CCC[C@H]1C(=O)N[C@@H](Cc1c[nH]cn1)C(=O)N[C@@H](CO)C(=O)N[C@H](C(=O)N[C@H](C(=O)N[C@@H](CCCNC(=N)N)C(=O)N[C@H](C(=O)O)C(C)C)[C@@H](C)O)[C@@H](C)O [Neuroligin] (Biotin-TFAAGFNSTGLPHSTTRV-OH; C-terminus assumed) | 2 (A450 nm 1-2) | 1 (A450 nm 0-1) | 1 (A450 nm 0-1)
CC[C@H](C)[C@H](NC(=O)[C@H](Cc1ccc(O)cc1)NC(=O)[C@H](CC(C)C)NC(=O)[C@H](CCC(N)=O)NC(=O)[C@H](Cc1c[nH]cn1)NC(=O)[C@H](CO)NC(=O)[C@H](C)NC(=O)[C@H](CC(C)C)NC(=O)[C@@H](NC(=O)[C@H](CC(=O)O)NC(=O)[C@H](CCSC)NC(=O)[C@H](Cc1ccccc1)NC(=O)[C@@H]1CCCN1C(=O)[C@H](CCCNC(=N)N)NC(=O)[C@@H](NC(=O)[C@H](CC(C)C)NC(=O)[C@H](CC(N)=O)NC(=O)[C@H](CC(=O)O)NC(=O)[C@@H](NC(=O)[C@H](CO)NC(=O)CCCC[C@@H]1SC[C@@H]2NC(=O)N[C@@H]21)[C@@H](C)O)C(C)C)[C@@H](C)O)C(=O)O [presenilin-2] (Biotin-STDNLVRPFMDTLASHQLYI-OH; C-terminus assumed) | – | – | 1 (A450 nm 0-1)
